Earlier results as cited in patent US20120289492A1, “METHODS OF TREATING MITOCHONDRIAL DISORDERS USING METALLOPORPHYRINS” (priority 2009, published 2012).

Legend:
[1] = safety studies in mice, monkeys and rats; phase 1 in amyotrophic lateral sclerosis patients; cited from earlier work
CD-1 Sod2−/− mice = details: cited from earlier work

SMILES | serious adverse events [1] | neurodegeneration (CD-1 Sod2−/− mice) | spongiform encephalopathy (CD-1 Sod2−/− mice) | cardiomyopathy (CD-1 Sod2−/− mice)
CCN1C=CN(CC)C1=C1C2=NC(=C(c3n(CC)cc[n+]3CC)C3=NC(=C(c4n(CC)cc[n+]4CC)c4ccc([n-]4)C(c4n(CC)cc[n+]4CC)=C4C=CC1=N4)C=C3)C=C2.[Cl-].[Cl-].[Cl-].[Cl-].[Cl-].[Mn+3] [AEOL10150] | No serious adverse events have been found |  |  | 
[Cl-].[Mn+3].[O-]c1ccccc1C=NCCN=Cc1ccccc1[O-] [EUK8] |  | ameliorated | ameliorated | 
COc1cccc(C=NCCN=Cc2cccc(OC)c2[O-])c1[O-].[Cl-].[Mn+3] [EUK134] |  | ameliorated | ameliorated | 
O=C(O)c1ccc(/C2=C3\C=CC(=N3)/C(c3ccc(C(=O)O)cc3)=c3/cc/c4[n]3[Mn]([Cl])[n]3c2ccc3/C(c2ccc(C(=O)O)cc2)=C2/C=CC(=N2)\C=4c2ccc(C(=O)O)cc2)cc1 [MnTBAP, manganese tetrakis 5, 10, 15, 20 . . . porphyrin] |  | but not neurodegeneration |  | ameliorated
